Data reported in patent US10081631B2, “2-(1H-indazol-3-yl)-1H-imidazo[4,5-C]pyridine and therapeutic uses thereof” (Samumed, LLC, priority 2014, dated 2018).

What was measured:
Format in all cases: cell-based
[1] = system: primary human fibroblasts derived from IPF patients (LL29 cells); test: Inhibition of fibrosis: TGF-β1-treated primary human fibroblasts from IPF patients (LL29), αSMA staining; conditions: Fibroblast, 96 h, TGF-β1 20 ng/mL, 4 days, % αSMA-positive cells
Summary of the method: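 […] (0.1% DMSO) on LL29 cells in F12 with 1% FBS, with TGF-β1 (20 ng/mL) added 1 h after plating; 4 days at 37 °C. SYTOX-positive dead cells were excluded and the % αSMA-positive cells was imaged, normalized to TGF-β1/DMSO wells, triplicates; EC50 by non-linear regression.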

[2] = system: Wnt activity (Sp5-Luc reporter, SW480 colon carcinoma cells); test: Screening assay for Wnt activity: Sp5-Luc reporter gene assay in SW480 cells; conditions: Homo sapiens, 42 h incubation, luminescence
Summary of the method: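 IC50 values come from variable-slope four-parameter fits of luciferase signal normalized to DMSO wells. Stable Sp5-Luc reporter SW480 colon carcinoma cells were exposed to compounds in a 3-fold dilution series (source plates from 10 mM stock) for forty-two hours at 37 °C.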

ARPE-19 cells = test: Transdifferentiation of ARPE-19 cells into eye neuronal cells (PAX6 staining); conditions: Homo sapiens, 40 hours, PAX6 antibody staining
Method: The above synthesized compounds were screened using ARPE-19 cells [a spontaneously arising retinal pigment epithelia (RPE) cell line] to determine their ability to transdifferentiate ARPE-19 into eye neuronal cells [photoreceptors].
ARPE-19 cells are cultured in standard culture medium containing Dulbecco's Modified Eagle's Medium and Ham's F12 Nutrient Mixture (DMEM/F12) mix (1:1)+GlutaMax with 1% penicillin-Streptomycin and 10% FBS (Fetal Bovine Serum). Cells are incubated at 37° C. with 5% CO2. Cells are trypsinized and plated onto 384-well pre-spotted plate at a density of 3000 cells/well in 50 uL of media. Plating media:DMEM/F12 (1:1)+3% charcoal filtered-FBS+GlutaMax+1% pen/Strep. Cells are incubated at 37° C. with 5% CO2. At 40 hours, cells were fixed for 15 min with 10% Buffered Formalin. Cells were then washed 3 times with PBS for 5 min each, permeablize using 0.3% Triton X-100 in 1×PBS for 30 min, block for 1 h with 2% BSA in 1×PBS with 0.1% Triton X-100. The primary antibody (1:100 PAX6 Santa Cruz Biotech; sc-81649) was diluted and 10 μL/well was added to the cells. The cells were incubated overnight at 4° C. The plates were washed 3× with PBS before applying the secondary antibody (goat Anti-mouse 488), shake for 1 h in complete darkness, aspirate secondary, add 10 μL of DAPI (diamidino-2-phenylindole) (1 μg/mL), shake for 10 min. Wash 3× in PBS and scan on Thermo Fisher Scientific cell-Insight CX5. Readings were normalized to DMSO only treated cells, and normalized activities were utilized for EC50 calculations using the dose-response log (activator) vs. response-variable slope (four parameters) nonlinear regression feature available in GraphPad Prism 5.0 or 6.0.

Row | SMILES | IC50 [2] | EC50 (ARPE-19 cells) | EC50 [1]
1 | Fc1cccc(-c2nccc3[nH]c(-c4n[nH]c5ccc(C6=CCNCC6)cc45)nc23)c1 [Compound 1770, 4-(3-Fluorophenyl)-2-(5-(1,2,3,6-tetrahydropyridin-4-yl)-1H-indazol-3-yl)-1H-imidazo[4,5-c]pyridine] | 658 nM | – | 9990 nM
2 | Fc1cccc(-c2nccc3[nH]c(-c4n[nH]c5ccc(-c6cncc(OC7CCNCC7)c6)cc45)nc23)c1 [Compound 1776, 4-(3-Fluorophenyl)-2-(5-(5-(piperidin-4-yloxy)pyridin-3-yl)-1H-indazol-3-yl)-1H-imidazo[4,5-c]pyridine] | 778 nM | – | 38 nM
3 | COc1cncc(-c2ccc3[nH]nc(-c4nc5c(-c6cccc(F)c6)nccc5[nH]4)c3c2)c1 [Compound 1780, 4-(3-Fluorophenyl)-2-(5-(5-methoxypyridin-3-yl)-1H-indazol-3-yl)-1H-imidazo[4,5-c]pyridine] | 25 nM | – | 19 nM
4 | Oc1cncc(-c2ccc3[nH]nc(-c4nc5c(-c6cccc(F)c6)nccc5[nH]4)c3c2)c1 [Compound 1781, 5-(3-(4-(3-Fluorophenyl)-1H-imidazo[4,5-c]pyridin-2-yl)-1H-indazol-5-yl)pyridin-3-ol] | 6 nM | – | 79 nM
5 | Fc1cccc(-c2nccc3[nH]c(-c4n[nH]c5ccc(-c6ccncc6)cc45)nc23)c1 [Compound 1784, 4-(3-Fluorophenyl)-2-(5-(pyridin-4-yl)-1H-indazol-3-yl)-1H-imidazo[4,5-c]pyridine] | > 10000 nM | – | 9990 nM
6 | Fc1cccc(-c2nccc3[nH]c(-c4n[nH]c5ccc(-c6ccccn6)cc45)nc23)c1 [Compound 1785, 4-(3-Fluorophenyl)-2-(5-(pyridin-2-yl)-1H-indazol-3-yl)-1H-imidazo[4,5-c]pyridine] | 633 nM | – | 9 nM
7 | Fc1cncc(-c2ccc3[nH]nc(-c4nc5c(N6CCOCC6)nccc5[nH]4)c3c2)c1 [Compound 2275, 4-(2-(5-(5-Fluoropyridin-3-yl)-1H-indazol-3-yl)-1H-imidazo[4,5-c]pyridin-4-yl)morpholine] | 80 nM | 43.4 nM | –
8 | CN1CCN(c2nccc3[nH]c(-c4n[nH]c5ccc(-c6cnn(C7CC7)c6)cc45)nc23)CC1 [Compound 2284, 2-(5-(1-Cyclopropyl-1H-pyrazol-4-yl)-1H-indazol-3-yl)-4-(4-methylpiperazin-1-yl)-1H-imidazo[4,5-c]pyridine] | 90 nM | 6 nM | –

More lines, main results first:

Row | IC50 [2] | EC50 (ARPE-19 cells) | SMILES | EC50 [1]
9 | 4 nM | – | Fc1cccc(-c2nccc3[nH]c(-c4n[nH]c5ccc(-c6cn[nH]c6)cc45)nc23)c1 [Compound 1771, 2-(5-(1H-Pyrazol-4-yl)-1H-indazol-3-yl)-4-(3-fluorophenyl)-1H-imidazo[4,5-c]pyridine] | 9990 nM
10 | 11 nM | – | Cn1cc(-c2ccc3[nH]nc(-c4nc5c(-c6cccc(F)c6)nccc5[nH]4)c3c2)cn1 [Compound 1772, 4-(3-Fluorophenyl)-2-(5-(1-methyl-1H-pyrazol-4-yl)-1H-indazol-3-yl)-1H-imidazo[4,5-c]pyridine] | 9990 nM
11 | 171 nM | – | NC1CN(c2cncc(-c3ccc4[nH]nc(-c5nc6c(-c7cccc(F)c7)nccc6[nH]5)c4c3)n2)C1 [Compound 1774, 1-(6-(3-(4-(3-Fluorophenyl)-1H-imidazo[4,5-c]pyridin-2-yl)-1H-indazol-5-yl)pyrazin-2-yl)azetidin-3-amine] | 102 nM
12 | 252 nM | – | Fc1cccc(-c2nccc3[nH]c(-c4n[nH]c5ccc(-c6cncc(OC7CCCCC7)c6)cc45)nc23)c1 [Compound 1775, 2-(5-(5-(Cyclohexyloxy)pyridin-3-yl)-1H-indazol-3-yl)-4-(3-fluorophenyl)-1H-imidazo[4,5-c]pyridine] | 9 nM
13 | 243 nM | – | O=C(CC1CCNCC1)Nc1cncc(-c2ccc3[nH]nc(-c4nc5c(-c6cccc(F)c6)nccc5[nH]4)c3c2)c1 [Compound 1777, N-(5-(3-(4-(3-Fluorophenyl)-1H-imidazo[4,5-c]pyridin-2-yl)-1H-indazol-5-yl)pyridin-3-yl)-2-(piperidin-4-yl)acetamide] | 107 nM
14 | 192 nM | – | CN(C)CCOc1cncc(-c2ccc3[nH]nc(-c4nc5c(-c6cccc(F)c6)nccc5[nH]4)c3c2)c1 [Compound 1779, 2-((5-(3-(4-(3-Fluorophenyl)-1H-imidazo[4,5-c]pyridin-2-yl)-1H-indazol-5-yl)pyridin-3-yl)oxy)-N,N-dimethylethan-1-amine] | 41 nM
15 | 35 nM | – | Fc1cccc(-c2nccc3[nH]c(-c4n[nH]c5ccc(-c6cnccn6)cc45)nc23)c1 [Compound 1786, 4-(3-Fluorophenyl)-2-(5-(pyrazin-2-yl)-1H-indazol-3-yl)-1H-imidazo[4,5-c]pyridine] | 9 nM
16 | 65 nM | 3.7 nM | CN1CCN(c2nccc3[nH]c(-c4n[nH]c5ccc(-c6cnn(C)c6)cc45)nc23)CC1 [Compound 1916, 2-(5-(1-Methyl-1H-pyrazol-4-yl)-1H-indazol-3-yl)-4-(4-methylpiperazin-1-yl)-1H-imidazo[4,5-c]pyridine] | –
17 | 124 nM | – | CN(C)CC(=O)Nc1cncc(-c2ccc3[nH]nc(-c4nc5c(-c6cccc(F)c6)nccc5[nH]4)c3c2)c1 [Compound 2251, 2-(Dimethylamino)-N-(5-(3-(4-(3-fluorophenyl)-1H-imidazo[4,5-c]pyridin-2-yl)-1H-indazol-5-yl)pyridin-3-yl)acetamide] | 75 nM
18 | 15 nM | 2 nM | Cn1cc(-c2ccc3[nH]nc(-c4nc5c(N6CCOCC6)nccc5[nH]4)c3c2)cn1 [Compound 2280, 4-(2-(5-(1-Methyl-1H-pyrazol-4-yl)-1H-indazol-3-yl)-1H-imidazo[4,5-c]pyridin-4-yl)morpholine] | –
